# Legend:
# Assay type in all cases: in vivo
# barnyardgrass [1] = experiment: Test Example 1: herbicidal effects in preemergence treatment under submerged conditions; settings: dose 2.52 g/a
# In short: (§1)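 Alluvial soil was flooded to 4 cm, sown with barnyardgrass, bulrush and ducksalad, and planted with 2.5-leaf rice seedlings. On the seeding day, water-diluted emulsifiable concentrates were applied to the water surface at set doses (g/a). After three weeks in a 25 to 30° C. greenhouse, mortality was scored 0–5.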
# bulrush [2] = experiment: as above; settings: dose 2.52 g/a
# In short: as §1
# ducksalad [3] = experiment: as above; settings: dose 2.52 g/a
# In short: as §1
# transplanted rice = experiment: Test Example 1: preemergence treatment under submerged conditions, effect on crop; settings: dose 2.52 g/a
# In short: as §1
# barnyardgrass [4] = experiment: Test Example 2: herbicidal effects during the vegetation period under submerged conditions; settings: treatment during the vegetation period under submerged conditions; dose 2.52 g/a
# In short: (§2)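 Barnyardgrass, bulrush and ducksalad were co-sown in alluvial soil flooded to 4 cm and grown in a greenhouse at 25 to 30° C. At the 1- or 2-leaf stage, water-diluted emulsifiable concentrates went onto the water surface at set doses (g/a). Herbicidal effect was scored three weeks later on a graded scale.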
# bulrush [5] = experiment: as above; settings: treatment during the vegetation period under submerged conditions; dose 2.52 g/a
# In short: as §2
# ducksalad [6] = experiment: as above; settings: treatment during the vegetation period under submerged conditions; dose 2.52 g/a
# In short: as §2
# Italian ryegrass [7] = experiment: Test Example 3: herbicidal effects in soil treatment; settings: dose 3.2 g/a
# In short: (§3)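 Seeds were sown in sterilized diluvial soil and covered with about 1.5 cm of soil. Compounds, formulated as emulsifiable concentrates and diluted with water, were sprayed evenly over the soil surface at set doses in g/a. Herbicidal effect was scored on a rating scale three weeks later.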
# barnyardgrass [8] = experiment: as above; settings: dose 3.2 g/a
# In short: as §3
# common lambsquater [9] = experiment: as above; settings: dose 3.2 g/a
# In short: as §3
# common ragweed [10] = experiment: as above; settings: dose 3.2 g/a
# In short: as §3
# giant foxtail [11] = experiment: as above; settings: dose 3.2 g/a
# In short: as §3
# large crabgrass [12] = experiment: as above; settings: dose 3.2 g/a
# In short: as §3
# redroot pigweed [13] = experiment: as above; settings: dose 3.2 g/a
# In short: as §3
# velvetleaf [14] = experiment: as above; settings: dose 3.2 g/a
# In short: as §3
# water foxtail [15] = experiment: as above; settings: dose 3.2 g/a
# In short: as §3
# wild oat [16] = experiment: as above; settings: dose 3.2 g/a
# In short: as §3
# Italian ryegrass [17] = experiment: Test Example 4: herbicidal effect in foliage treatment; settings: dose 3.2 g/a
# In short: (§4)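 Doses are given in grams per are of applied compound, sprayed as water-diluted emulsifiable concentrate onto foliage of 14-day-old plants grown at 25 to 30° C. Herbicidal activity was assessed visually on a rating scale after three weeks.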
# barnyardgrass [18] = experiment: as above; settings: dose 3.2 g/a
# In short: as §4
# beadstraw = experiment: as above; settings: dose 3.2 g/a
# In short: as §4
# common lambsquater [19] = experiment: as above; settings: dose 3.2 g/a
# In short: as §4
# common ragweed [20] = experiment: as above; settings: dose 3.2 g/a
# In short: as §4
# giant foxtail [21] = experiment: as above; settings: dose 3.2 g/a
# In short: as §4
# large crabgrass [22] = experiment: as above; settings: dose 3.2 g/a
# In short: as §4
# posumbu knotweed = experiment: as above; settings: dose 3.2 g/a
# In short: as §4
# velvetleaf [23] = experiment: as above; settings: dose 3.2 g/a
# In short: as §4
# water foxtail [24] = experiment: as above; settings: dose 3.2 g/a
# In short: as §4
# wild oat [25] = experiment: as above; settings: dose 3.2 g/a
# In short: as §4
# common chickweed [26] = experiment: Test Example 3: herbicidal effects in soil treatment; settings: dose 3.2 g/a
# In short: as §3
# common chickweed [27] = experiment: Test Example 4: herbicidal effect in foliage treatment; settings: dose 3.2 g/a, three weeks after application
# In short: as §4
# redroot pigweed [28] = experiment: as above; settings: dose 3.2 g/a, three weeks after application
# In short: as §4
# [29] = three weeks after the application
compound,measurement,setting,value
O=C1CCCON1Cc1ccccc1NS(=O)(=O)C(F)(F)F [III-12],"A: barnyardgrass, herbicidal effect (evaluation scale 0-5)",barnyardgrass [1],5 (mortality of 90% or above (nearly complete death))
same,"B: bulrush, herbicidal effect (evaluation scale 0-5)",bulrush [2],5 (mortality of 90% or above (nearly complete death))
same,"C: ducksalad, herbicidal effect (evaluation scale 0-5)",ducksalad [3],5 (mortality of 90% or above (nearly complete death))
same,"a: transplanted rice, effect on crop (evaluation scale 0-5)",transplanted rice,2 (mortality of at least 20% and less than 40%)
same,"A: barnyardgrass, herbicidal effect (evaluation scale 0-5)",barnyardgrass [4],5 (mortality of 90% or above (nearly complete death))
same,"B: bulrush, herbicidal effect (evaluation scale 0-5)",bulrush [5],5 (mortality of 90% or above (nearly complete death))
same,"C: ducksalad, herbicidal effect (evaluation scale 0-5)",ducksalad [6],5 (mortality of 90% or above (nearly complete death))
same,"herbicidal effect, H: Italian ryegrass",Italian ryegrass [7],3 (mortality of at least 40% and less than 70%)
same,"herbicidal effect, A: barnyardgrass",barnyardgrass [8],5 (mortality of 90% or above (nearly complete death))
same,"herbicidal effect, L: common lambsquater",common lambsquater [9],0 (mortality of less than 5% (almost ineffective))
same,"herbicidal effect, J: common ragweed",common ragweed [10],5 (mortality of 90% or above (nearly complete death))
same,"herbicidal effect, E: giant foxtail",giant foxtail [11],5 (mortality of 90% or above (nearly complete death))
same,"herbicidal effect, D: large crabgrass",large crabgrass [12],5 (mortality of 90% or above (nearly complete death))
same,"herbicidal effect, K: redroot pigweed",redroot pigweed [13],0 (mortality of less than 5% (almost ineffective))
same,"herbicidal effect, I: velvetleaf",velvetleaf [14],5 (mortality of 90% or above (nearly complete death))
same,"herbicidal effect, G: water foxtail",water foxtail [15],5 (mortality of 90% or above (nearly complete death))
same,"herbicidal effect, F: wild oat",wild oat [16],2 (mortality of at least 20% and less than 40%)
same,"H: Italian ryegrass, herbicidal effect",Italian ryegrass [17]; [29],3 (mortality of at least 40% and less than 70%)
same,"A: barnyardgrass, herbicidal effect",barnyardgrass [18]; [29],5 (mortality of 90% or above (nearly complete death))
same,"O: beadstraw, herbicidal effect",beadstraw; [29],4 (mortality of at least 70% and less than 90%)
same,"L: common lambsquater, herbicidal effect",common lambsquater [19]; [29],0 (mortality of less than 5% (almost ineffective))
same,"J: common ragweed, herbicidal effect",common ragweed [20]; [29],4 (mortality of at least 70% and less than 90%)
same,"E: giant foxtail, herbicidal effect",giant foxtail [21]; [29],3 (mortality of at least 40% and less than 70%)
same,"D: large crabgrass, herbicidal effect",large crabgrass [22]; [29],5 (mortality of 90% or above (nearly complete death))
same,"M: posumbu knotweed, herbicidal effect",posumbu knotweed; [29],0 (mortality of less than 5% (almost ineffective))
same,"I: velvetleaf, herbicidal effect",velvetleaf [23]; [29],5 (mortality of 90% or above (nearly complete death))
same,"G: water foxtail, herbicidal effect",water foxtail [24]; [29],5 (mortality of 90% or above (nearly complete death))
same,"F: wild oat, herbicidal effect",wild oat [25]; [29],0 (mortality of less than 5% (almost ineffective))
CC1CN(Cc2ccccc2N(C(=O)OCCCl)S(=O)(=O)C(F)(F)F)C(=O)CO1 (stereo not shown) [Compound I-8],"A: barnyardgrass, herbicidal effect (evaluation scale 0-5)",barnyardgrass [1],5 (mortality of 90% or above (nearly complete death))
same,"B: bulrush, herbicidal effect (evaluation scale 0-5)",bulrush [2],5 (mortality of 90% or above (nearly complete death))
same,"C: ducksalad, herbicidal effect (evaluation scale 0-5)",ducksalad [3],5 (mortality of 90% or above (nearly complete death))
same,"A: barnyardgrass, herbicidal effect (evaluation scale 0-5)",barnyardgrass [4],5 (mortality of 90% or above (nearly complete death))
same,"B: bulrush, herbicidal effect (evaluation scale 0-5)",bulrush [5],5 (mortality of 90% or above (nearly complete death))
same,"C: ducksalad, herbicidal effect (evaluation scale 0-5)",ducksalad [6],5 (mortality of 90% or above (nearly complete death))
same,"H: Italian ryegrass, herbicidal effect (evaluation scale 0-5)",Italian ryegrass [7],5 (mortality of 90% or above (nearly complete death))
same,"A: barnyardgrass, herbicidal effect (evaluation scale 0-5)",barnyardgrass [8],5 (mortality of 90% or above (nearly complete death))
same,"N: common chickweed, herbicidal effect (evaluation scale 0-5)",common chickweed [26],5 (mortality of 90% or above (nearly complete death))
same,"L: common lambsquater, herbicidal effect (evaluation scale 0-5)",common lambsquater [9],3 (mortality of at least 40% and less than 70%)
same,"J: common ragweed, herbicidal effect (evaluation scale 0-5)",common ragweed [10],5 (mortality of 90% or above (nearly complete death))
same,"E: giant foxtail, herbicidal effect (evaluation scale 0-5)",giant foxtail [11],4 (mortality of at least 70% and less than 90%)
same,"D: large crabgrass, herbicidal effect (evaluation scale 0-5)",large crabgrass [12],5 (mortality of 90% or above (nearly complete death))
same,"K: redroot pigweed, herbicidal effect (evaluation scale 0-5)",redroot pigweed [13],5 (mortality of 90% or above (nearly complete death))
same,"I: velvetleaf, herbicidal effect (evaluation scale 0-5)",velvetleaf [14],5 (mortality of 90% or above (nearly complete death))
same,"G: water foxtail, herbicidal effect (evaluation scale 0-5)",water foxtail [15],5 (mortality of 90% or above (nearly complete death))
same,"F: wild oat, herbicidal effect (evaluation scale 0-5)",wild oat [16],1 (mortality of at least 5% and less than 20%)
same,"H: Italian ryegrass, herbicidal effect",Italian ryegrass [17]; three weeks after application,4 (mortality of at least 70% and less than 90%)
same,"A: barnyardgrass, herbicidal effect",barnyardgrass [18]; three weeks after application,5 (mortality of 90% or above (nearly complete death))
same,"O: beadstraw, herbicidal effect",beadstraw; three weeks after application,4 (mortality of at least 70% and less than 90%)
same,"N: common chickweed, herbicidal effect",common chickweed [27],3 (mortality of at least 40% and less than 70%)
same,"L: common lambsquater, herbicidal effect",common lambsquater [19]; three weeks after application,2 (mortality of at least 20% and less than 40%)
same,"J: common ragweed, herbicidal effect",common ragweed [20]; three weeks after application,5 (mortality of 90% or above (nearly complete death))
same,"E: giant foxtail, herbicidal effect",giant foxtail [21]; three weeks after application,4 (mortality of at least 70% and less than 90%)
same,"D: large crabgrass, herbicidal effect",large crabgrass [22]; three weeks after application,4 (mortality of at least 70% and less than 90%)
same,"M: posumbu knotweed, herbicidal effect",posumbu knotweed; three weeks after application,5 (mortality of 90% or above (nearly complete death))
same,"K: redroot pigweed, herbicidal effect",redroot pigweed [28],4 (mortality of at least 70% and less than 90%)
same,"I: velvetleaf, herbicidal effect",velvetleaf [23]; three weeks after application,5 (mortality of 90% or above (nearly complete death))
same,"G: water foxtail, herbicidal effect",water foxtail [24]; three weeks after application,5 (mortality of 90% or above (nearly complete death))
same,"F: wild oat, herbicidal effect",wild oat [25]; three weeks after application,1 (mortality of at least 5% and less than 20%)

# Source: patent publication US20120029187A1, “HALOALKYLSULFONANILIDE DERIVATIVE” (Nissan Chemical Industries, Ltd., priority 2009, published 2012)
